Series [1] has as its system 468 human kinases. The experiment in a line: KINOMEscan profiling. The class given is binding. As to conditions: 249C at 10,000 nM. From the text: The KINOMEscan™ Profiling Service consisting of 468 human kinases was used to assess 249C inhibitor activity to check for off-target effects as previously described.
Supplementary Fi g u re 12: Compound 249C assessed for off-target effects using the KIN OME scanTM screening platform. (A) Selectivity (S-score) for 249C wher e the sco re is a qu antitative measu re o f compound selectivity against human kinases. It is calculate b y dividing the number of k inases that compounds bi nd to b y the total number of distinct kinases tested, excluding mutant variants (S = number of hits / number of assa ys). 1 hit out of >400 kinases is reported for test compound (249C) = 0.002. S(35) = number of non- mutant kinases with % ctrl <35/number of non- mutant kinases; (B) Kinome interaction map for 249C at 10,000 nM. Each red dot indicates a kinase found to bind, where larger dots indicate higher affinit y interactions.
1 Tyrosine Kinase (TK) out of >400 kinases ( created in TREEspotTM ) with low affinity. This is calculated using
Dissociation constants (Kds) were determined using 249C at 30,000 nM, Hill slopes were set to - 1 and curves were fitted using a non- linear least square fit with the […]
(1 picture or pasted object on this page, not shown here)

Series [2] concerns MEFs KRAS G12V. The experiment in a line: Cell proliferation of Ras-less MEFs expressing human KRAS/BRAF. The conditions noted are these: Mus musculus.
Description: (§1) Cell proliferation assays of stable cell lines treated with V-ATPase inhibitors 249C and BafA1, HCQ analog (DC661), KRASG12C inhibitor (AMG510) and autophagy inducer (CMA). For each bar, n = 3. Representative of 3 biological replicates (mean ± SD). Two-sided t-test with no adjustments for multiple comparisons.
(§2) Logarithmically growing cells were plated in antibiotic-free medium supplemented with 2% fetal bovine serum at a density of 5,000 cells per well. The next day, cells were treated in triplicates with increasing doses of in-house small molecule inhibitor drugs and a DMSO vehicle control for 3 days and subsequently assessed for cell viability by measurement of ATP with CellTiter-Glo Luminescent Cell Viability Assay (Promega). Signal intensity was read on a Glomax™ 96 Microplate Luminometer (Promega) with GLOMAX software (version 1.9.3) and percent cell survival was calculated based on the reading of vehicle control cells set as 100% using Excel (2012) and GraphPad Prism (version 6)Each compound was tested a minimum of 2 times with n = 3. All cell proliferation assays (cancer cell lines or MEFs) were done in a similar way.
In series [3] the test system is MEFs KRAS G12S. Described as above. As to conditions: Mus musculus.
Description: as §2
Series [4] deals with panel of 53 cancer cell lines. The experiment in a line: 249C sensitivity in a panel of 53 cancer cell lines. The class given is cell-based. The conditions noted are these: Homo sapiens, read-out: median IC50. The protocol:
Figure 1: Optimization of Potency and Drug Properties of Small Molecule Inhibitors of Ras- and Raf-mutant Cells using Viability Screens. (A) Cell viability screen of ~300 small molecules in A549 (KRASG12S), LOX IMVI (BRAFV600E), and MelJuso (HRASG13D and NRASQ61L). Cells were treated with vehicle DMSO or increasing concentrations of small molecules in triplicate for 72 h and ATP content/viability was measured using CellTiter-Glo Luminescent Cell Viability Assay. The results shown for all cell viability figures are representative of at least two independent experiments. […] (F) Quantitative whole proteome analysis of the effects of small molecule treatment by mass spectrometry. A549 cells were treated with DMSO or 68 (30 μM), 226C (1μM) or 249C (1μM) for 48 h prior to analysis of proteomes with TMT labeling followed by quantification relative to the DMSO control. […]
The Cancer Cell Line Encyclopedia (CCLE, http://www.broadinstitute.org/ccle) was used to download somatic mutation data for over 1000 cancer cell lines [(CCLE_DepMap_18q3_maf_20180718.txt) from CCLE at https://depmap.org/portal/download/ (2018)][61]. We filtered the data to retain only mutations (single nucleotide variants, SNVs, and insertion deletions, indels) detected in 53 cell lines that were included in our MTS assays (Fig. 1). […] Genes with multiple mutations in the same cell line were only counted once. […]

The nature of series [5]: Maximum tolerated dose study. The class given is in vivo. From the text:
MTD studies were outsourced and performed at a local CRO based on their established protocols.

Series [6] has as its system human primary cells. Description: BioMAP Safety and Toxicology screening profile. Format: cell-based. As to conditions: over 100 biomarker readouts. The method, then:
The BioMAP Toxicity Screening Profile was performed as described previously.

For series [7], the system named is MEFs KRAS G13D. Description: Cell proliferation of Ras-less MEFs expressing human KRAS/BRAF. The conditions noted are these: Mus musculus.
Description: as §1, §2

Molecules are shown by their SMILES. Read-outs that look alike come from different tables or passages of the source.

The term IC50 denotes the concentration at which inhibition is half-maximal. For orientation: MTD means the highest dose tested that stayed within the study's limit of toxicity.

For `CN1CCOC(CNC(=O)C2(C)C(c3ccc(Cl)o3)C(c3ccc(F)cc3F)=NN2c2ccc(F)cc2F)C1` (stereo not drawn) [Compound 249C], the “number of kinases found to bind out of >400 kinases” value in series [1] came to 1. For the same compound, the IC50 is 150 nM in series [2]; 230 nM in series [3]; 65 nM in series [4] (KRAS/HRAS/NRAS/BRAF mutant cells); 365 nM in series [4] (cells with no mutations in these genes); 70 nM in series [7]. The body weight result in series [5] (150 mg/kg, after 21 days in vivo) is on record as “no significant difference in body weight”. The same compound yielded an MTD at 21 days in series [5] (mouse, in vivo, mice) of 150 mg/kg. For the same compound, in series [6], the “toxicity categories / adverse events in BioMAP safety profiling” value is “no adverse events”.

Source of the values: publication PMC9750872, “Ras-mutant cancers are sensitive to small molecule inhibition of V-type ATPases in mice” (Nature biotechnology, 2022).
